≈ marks a conversion by molar mass, not a printed value.
Key:
[1] = test system: Human immunodeficiency virus 1; assay: Antiviral activity against HIV1 3B infected in human H9 cells after 4 days by p24 antigen ELISA assay; assay type: functional, organism-based; settings: Human immunodeficiency virus 1, 3B, H9, 96 h
[2] = Therapeutic index, ratio of IC50 for human H9 cells to EC50 for HIV1 3B; assay type: cell-based; settings: for Ratio IC50/EC50: h9; for selectivity ratio: H9 cells, read-out: Ratio IC50/EC50
H9 = assay: Cytotoxicity against human H9 cells; assay type: cell-based

For `O=C(O[C@H](Cc1ccc(O)c(O)c1)C(=O)O)C1=Cc2cc(O)c(O)cc2[C@H](c2ccc(O)c(O)c2)[C@H]1C(=O)O[C@H](Cc1ccc(O)c(O)c1)C(=O)O`, the EC50 [1] was 13 µg/mL (≈ 18.1 µM), the “Ratio IC50/EC50” value [2] was 3.5 and the IC50 (H9) was 45 µg/mL (≈ 62.6 µM).
With `O=C(O[C@H](Cc1ccc(O)c(O)c1)C(=O)[O-])C1=Cc2cc(O)c(O)cc2[C@@H](c2ccc(O)c(O)c2)C1C(=O)O[C@H](Cc1ccc(O)c(O)c1)C(=O)[O-].[K+].[K+]` (stereo partly drawn) the EC50 [1] was 16 µg/mL, the “Ratio IC50/EC50” value [2] was 3.1 and the IC50 (H9) was 50 µg/mL.
Molecule `O=C(O[C@H](Cc1ccc(O)c(O)c1)C(=O)[O-])C1=Cc2cc(O)c(O[C@@H]3O[C@H](CO)[C@@H](O)[C@H](O)[C@H]3O)cc2[C@@H](c2ccc(O)c(O)c2)C1C(=O)O[C@H](Cc1ccc(O)c(O)c1)C(=O)[O-].[K+].[Na+]` (stereo partly drawn) has an EC50 [1] of 30 µg/mL, a selectivity ratio [2] of 2 and an IC50 (H9) of 60 µg/mL.
For `O=C(O[C@H](Cc1ccc(O)c(O)c1)C(=O)[O-])C1=Cc2cc(O)c(O)cc2[C@@H](c2ccc(O)c(O)c2)C1C(=O)O[C@H](Cc1ccc(O)c(O)c1)C(=O)[O-].[Na+].[Na+]` (stereo partly drawn), the EC50 [1] was 2.8 µg/mL, the “Ratio IC50/EC50” value [2] was 19.6 and the IC50 (H9) was 55 µg/mL.
For `O=C(O[C@H](Cc1ccc(O)c(O)c1)C(=O)[O-])C1=Cc2cc(O)c(O)cc2[C@H](c2ccc(O)c(O)c2)[C@H]1C(=O)O[C@H](Cc1ccc(O)c(O)c1)C(=O)O.[K+]`, the EC50 [1] was 1.5 µg/mL, the “Ratio IC50/EC50” value [2] was 33.3 and the IC50 (H9) was 50 µg/mL.
For `O=C(O[C@H](Cc1ccc(O)c(O)c1)C(=O)O)C1=Cc2cc(O)c(O)cc2[C@@H](c2ccc(O)c(O)c2)C1C(=O)O[C@H](Cc1ccc(O)c(O)c1)C(=O)O` (stereo partly drawn), the EC50 [1] was 15 µg/mL (≈ 20.9 µM), the “Ratio IC50/EC50” value [2] was 3.3 and the IC50 (H9) was 50 µg/mL (≈ 69.6 µM).
For `O=C(O[C@H](Cc1ccc(O)c(O)c1)C(=O)[O-])C1=Cc2cc(O)c(O)cc2[C@@H](c2ccc(O)c(O)c2)C1C(=O)O[C@H](Cc1ccc(O)c(O)c1)C(=O)O.[K+]` (stereo partly drawn), the EC50 [1] was 4 µg/mL, the “Ratio IC50/EC50” value [2] was 12.5 and the IC50 (H9) was 50 µg/mL.
For `O=c1ccn([C@@H]2O[C@H](CO)[C@@H](O)[C@H]2O)c(=O)[nH]1` [URIDINE], the EC50 [1] was 10 µg/mL (≈ 40.9 µM) and the selectivity ratio [2] was greater than 10.
